Data on four compounds can be found in ChEMBL document CHEMBL4330116, “Harzianoic acids A and B, new natural scaffolds with inhibitory effects against hepatitis C virus” (Bioorg Med Chem, 2019).

Bounds are passed on as bounds.

A short description of data set [1]: Cytotoxicity against human Huh7.5 cells after 72 hrs by MTT assay. It is filed as cell-based. In general terms: Tetrazolium dyes change colour on reduction, which living cells bring about.
Data set [2] can be described thus: Selectivity index, ratio of CC50 for human Huh7.5 cells to EC50 for antiviral activity against HCV genotype 2a JFH/JC1 infected in human Huh7.5 cells. It is filed as toxicity, cell-based. Particulars: read-out: Ratio CC50/EC50.
Data set [3] concerns Hepatitis C virus. Put plainly: Antiviral activity against HCV pseudoparticles infected in human Huh7.5 cells infected with HCV pseudoparticles expressed in 293T cells with plasmid encoding HCV E1, E2, envelope and Vpr deficient HIV vector carrying luciferase reporter gene inserted into Nef position assessed as inhibition of pseudoparticle entry after 72 hrs by luciferase reporter gene assay. Type of data set: functional, organism-based, Hepacivirus hominis. Particulars: for inhibition: Hepacivirus hominis. (In general: A reporter such as luciferase makes a cellular process visible.)

Data set [4] addresses T1, CD81 antigen (Homo sapiens) (UniProt P60033).
T1 sequence (whole entry): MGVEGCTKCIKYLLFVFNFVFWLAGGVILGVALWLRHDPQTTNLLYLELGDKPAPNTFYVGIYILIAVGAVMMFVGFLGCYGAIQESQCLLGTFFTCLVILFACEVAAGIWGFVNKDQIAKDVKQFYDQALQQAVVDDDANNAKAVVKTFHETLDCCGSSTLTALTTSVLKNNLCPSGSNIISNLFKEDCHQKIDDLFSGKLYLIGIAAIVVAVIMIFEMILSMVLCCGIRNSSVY
Put plainly: Binding affinity to CD81 (unknown origin) assessed as association rate constant by surface plasmon resonance assay.

In data set [5] the target is T2, CD81 antigen (Homo sapiens, UniProt P60033).
T2 sequence (P60033 whole entry): T1 sequence (whole entry)
Briefly: Binding affinity to CD81 (unknown origin) by surface plasmon resonance assay.

For data set [6], the target named is T1, CD81 antigen (Homo sapiens). Briefly: Binding affinity to CD81 (unknown origin) assessed as disruption of interaction between CD81 the HCV envelope protein E2 at 5 uM by surface plasmon resonance assay relative to untreated control. On the technique in general: Surface plasmon resonance follows binding to a sensor surface in real time, without labels.
The test system of data set [7] is Hepatitis C virus. Briefly: Antiviral activity against HCV genotype 2a JFH/JC1 infected in human Huh7.5 cells assessed as inhibition of viral RNA replication after 72 hrs by qRT-PCR analysis. It is filed as functional, organism-based, Hepacivirus hominis. The note with it: subtype 2a JFH/JC1, Huh7.5, 72 h.

As for `CCC[C@H](NC(=O)[C@@H]1[C@H]2CCC[C@H]2CN1C(=O)[C@@H](NC(=O)[C@@H](NC(=O)c1cnccn1)C1CCCCC1)C(C)(C)C)C(=O)C(=O)NC1CC1` [TELAPREVIR], it took 26.5 µM to reach half-maximal cytotoxicity in data set [1] (CC50 at 72 h). Further, in data set [2], the selectivity ratio was 491.

As to `CC(=O)[C@@H]1C[C@H](C(=O)O)[C@@]1(C)CC/C=C(\C)C(=O)O`, the CC50 at 72 h in data set [1] was 75.3 µM. For the same compound, in data set [3], the half-maximal inhibitory concentration (IC50) was found to be 35.5 µM and the inhibition entry is “Dose-dependent effect”. Moreover, the Ka in data set [4] was 5.33e+06 M⁻¹ s⁻¹. In data set [5], the Kd is 0.0378 µM. For the same compound, in data set [6], the Ratio was 33. Further, in data set [2], the selectivity ratio stood at 3. In addition, in data set [7], the concentration giving a half-maximal response (EC50) was found to be 24.5 µM.

On to `CC(C)OC(=O)[C@H](C)NP(=O)(OC[C@H]1O[C@@H](n2ccc(=O)[nH]c2=O)[C@](C)(F)[C@@H]1O)Oc1ccccc1` (stereo not given in full), for which, in data set [1], the cytotoxic concentration (CC50) at 72 h was above 200 µM. In addition, the selectivity ratio in data set [2] is above 3120. In addition, the concentration giving a half-maximal response (EC50) in data set [7] amounted to 0.06 µM.

With `C/C(=C\CC[C@]1(C)[C@@H](C(=O)O)C[C@H]1[C@](C)(O)C(=O)O)C(=O)O`, in data set [1], the cytotoxic concentration (CC50) at 72 h is 74.3 µM. Besides, in data set [3], the IC50 amounted to 42.9 µM and the inhibition entry was “Dose-dependent effect”. Besides, the Ka in data set [4] came to 3.81e+07 M⁻¹ s⁻¹. In addition, in data set [5], the Kd amounted to 0.0665 µM. In data set [2], the selectivity ratio was 4. For the same compound, the concentration for a half-maximal effect (EC50) in data set [7] stood at 20.4 µM.

The CC50 is the concentration giving 50% cytotoxicity. A low value points to harm at low concentration. Broadly, the IC50 is the midpoint of a concentration-inhibition curve. What is called Kd is the constant that tells how readily two partners part at equilibrium. Read a low Kd as a tighter complex. One may read the EC50 as the concentration giving half of the maximal effect.
